Data set [1] in a line: Growth inhibition (cytotoxicity, WST-1) of granulocyte progenitors expanded ex vivo (CFU-GM). The class given is cell-based, human. To be noted: human, drug exposure time; for IC50 at 24 h: then cultured for 6 days without drugs. On the procedure:
(§1) The activation of the compounds is mediated by microsomal dipeptidase. The inhibitory activities of the compounds is determined against growth of the cells expressing a low level of microsomal dipeptidase, those expressing a high level of microsomal dipeptidase, and granulocyte progenitors that are expanded ex vivo. The human colon cancer cell line, HCT116 (American Type Culture Collection No. CCL-247), and granulocyte progenitors are used as the cells expressing only a low level of microsomal dipeptidase. A stable transfectant, HCT116/S5, into which the human microsomal dipeptidase cDNA (herafter called MDP) connected to the CMV promoter was transfected, is used as the cells expressing a high level of microsomal dipeptidase. The dipeptidase cDNA (Satoh et al. Biotechnol. Prog. 10 (2), 134-140 (1994)) and other references) and the cloning procedures as mentioned are known in the art. HCT116, HCT116/S5, and granulocyte porogenitors are cultured in the absence and presence of the drugs. […] The IC50 values are determined and compared among HCT116, HCT116/S5, and granulocyte porogenitors. Although time duration of the exposure of the cells to the drugs varies depending on the cells and drugs, it can be 24 hr, 96 or 168 hr.
(§2) CD34-positive mononuclear cells derived from the human umbilical cord blood and bone marrow (Veritas Co, Tokyo, Japan, Catalog No.CB009F, ABM019F) were cultured on a confluent monolayer of MS5 (Itoh, K., et al. Reproducible establishment of hematopoietic supportive stromal cells from murine bone marrow. Exp. Hematol. 17, 145-153 (1989)). Mouse stromal cell lines in alpha MEM medium (Life Technologies, Gaithersburg, USA, Catalog No.12571-0063) supplemented with 10% (v/v) horse serum (HS) (Stem Cell Technologies, Vancouver, Canada, Catalog No. 06750), 10% (v/v) fetal bovine serum (FBS) (Stem Cell Technologies, Vancouver, Canada, Catalog No.06450), 50 ng/ml Flt3 ligand (PeproTec EC., London, UK., Catalog No. 300-19), 100 ng/ml SCF (PeproTech EC, London, UK., Catalog No. 300-07), and 50 ng/ml TPO (PeproTech EC, London, England, Catalog No. 300-18) at 37° C. under 5% CO2 in humidified air. Floating hematopoietic cells were collected and stained by monoclonal antibodies against PerCP-anti-CD34 (BD pharMingen, San Diego, USA, Catalog No.340430), PE-anti-CD13 (BD pharMingen, San Diego, USA, Catalog No. 30525X) and FlTC-anti-15(BD pharMingen, SanDiego, USA, Catalog No. PM30525X). Five microlitter of each antibody was added to a […] of cell suspension and incubated at 4° C. for 25 min. After washing with PBS containing 10% (v/v) FCS, the expression of CD antigens were detected by using FACSCalibur (Becton Dickinson, Franklin Lakes, N.J., USA) according to the FACSCalibur Traing mannual (FACStation ver1.1. Becton Dickinson, Franklin Lakes, N.J., USA.). […]

Data set [2] deals with HCT116/S5: HCT116 transfected with the human microsomal dipeptidase cDNA. In words: Growth inhibition (cytotoxicity, WST-8) of HCT116/S5 cells expressing a high level of microsomal dipeptidase. The data set is classed as cell-based. To be noted: for Growth inhibition compared among HCT116, HCT116/S5 and granulocyte progenitor cells: HCT116/S5 (high microsomal dipeptidase) versus HCT116 and granulocyte progenitor cells (very little activity); for IC50: drug exposure time, read-out: Cytotoxicity (IC50 in nM) HCT116/S5. As to the method:
as §1
Transfection of the DNA was carried out by using TransIT-LT2 (PanVera, Madison, USA, Calatog No. MIR2320) according to the manufacturer's instruction. The resulting transfectants were cultivated in MaCoy5A medium (Sigma, St Louis, USA, Catalog No. M8403) supplemented with 10% (v/v) fetal bovine serum and 1 mg/ml of geneticin disulfate (Wako, Osaka, Japan, Catalog No. 535-24624). The cells that grew in the presence of 1 mg/ml G418 were collected and cultivated in MaCoy5A medium.
(§3) By using 96-multi well plates, approximately 2×10^3 cells per well of the HCT116 bearing pRC/CMV and HCT116S5 carrying pRC/CMV-MDP were cultured in 200 μl of McCoy5A medium supplemented with 10% FBS in the presence or absence of the indicated concentrations of the drugs at 37° C. under 5% CO2 in humidified air. The cells were exposed to drugs for 24 hr (taxol, camptothecins and their prodrugs) or 96 hr (DMDC and its compounds). When the drug exposure time to the cells was 24 hr, culture medium containing drugs were removed, and the cells were washed and suspended in the fresh medium without drugs and further cultured at 37° C. under 5% CO2 in humidified air for the indicated days. Then, 10 μl of WST-8 (Cell Counting Kit-8, Wako, Osaka, Japan, Catalog No.343-07623) were added to the cultures, and the cells were further incubated at 37° C. for 1 or 2 hr. Cell growth inhibition was calculated as IC50 values according to optical densities at 450 nm and at 655 nm. To examine the effects of drugs on granulocyte progenitors, the granulocyte progenitors, which were expanded on a monolayer of MS-5 for 7 days, were collected and washed with RPMI1640 medium. Approximately 5000 cells were suspended in 200 μl of RPMI medium supplemented with 10% FBS and 50 ng/ml of G-CSF in the presence or absence of drugs and cultured in the presence of drugs for 24 hr (taxol, camptothecins and their prodrugs) or 7 days (DMDC and its prodrug) at 37° C. under 5% CO2 in humidified air. When the exposure time of drugs to the cells was 24 hr, the drugs were removed at 24 hr after addition of drugs by washing the cells with the above medium, and the cells were further cultured for 6 days in the same medium without drugs. Therafter, 20 μl of WST-1 (Roche Diagnostics, Mannheim, Germany, Catalog No. 1644807) were added to the cultures, and the cells were further incubated at 37° C. for 6 hr. Cell growth inhibition was calculated as IC50 values according to optical densities at 450 nm and at 655 nm.

The subject of data set [3] is HCT116: human colon cancer cell line. Briefly: Growth inhibition (cytotoxicity, WST-8) of HCT116 cells expressing only a low level of microsomal dipeptidase. To be noted: drug exposure time, read-out: Cytotoxicity (IC50 in nM) HCT116. The data set is classed as cell-based. As to the method: The activation of the compounds is mediated by microsomal dipeptidase. The inhibitory activities of the compounds is determined against growth of the cells expressing a low level of microsomal dipeptidase, those expressing a high level of microsomal dipeptidase, and granulocyte progenitors that are expanded ex vivo. […] A stable transfectant, HCT116/S5, into which the human microsomal dipeptidase cDNA (herafter called MDP) connected to the CMV promoter was transfected, is used as the cells expressing a high level of microsomal dipeptidase. […] HCT116, HCT116/S5, and granulocyte porogenitors are cultured in the absence and presence of the drugs. […] The IC50 values are determined and compared among HCT116, HCT116/S5, and granulocyte porogenitors.
Transfection of the DNA was carried out by using TransIT-LT2 (PanVera, Madison, USA, Calatog No. MIR2320) according to the manufacturer's instruction. […] The cells that grew in the presence of 1 mg/ml G418 were collected and cultivated in MaCoy5A medium.
as §3, with “Then, 10 μl of WST-8 (Cell Counting Kit-8, Wako, Osaka, Japan, Catalog No.343-07623) were added to the cultures, and the cells were further incubated at 37° C. for 1 or 2 hr. Cell growth inhibition was calculated as IC50 values according to optical densities at 450 nm and at 655 nm.” left out, “drugs.” for “drugs. Therafter, 20 μl of WST-1 (Roche Diagnostics, Mannheim, Germany, Catalog No. 1644807) were added to the cultures, and the cells were further incubated at 37° C. for 6 hr. Cell growth inhibition was calculated as IC50 values according to optical densities at 450 nm and at 655 nm.”
Background: Formazan colour is commonly taken as a measure of viable cells.

The subject of data set [4] is CFU-GM: human bematopoietic progenitor cells. Briefly: Growth inhibition (cytotoxicity, WST-1) of granulocyte progenitors expanded ex vivo (CFU-GM). The data set is classed as cell-based. To be noted: drug exposure time; 24 hr, then cultured for 6 days without drugs; read-out: Cytotoxicity (IC50 in nM) CFU-GM. As to the method: as §1, §2
Where [5] appears, read: Homo sapiens, HCT-116, 24 hr, then drug removed and cells cultured further.
[6] abbreviates: 24 hr, then drug removed and cells cultured further.

Where a name gives a salt, the structure may show the parent alone. Read-outs that look alike come from different tables or passages of the source.

As for `CC(=O)O[C@H]1C(=O)[C@@]2(C)[C@H]([C@H](OC(=O)c3ccccc3)[C@]3(O)C[C@H](OC(=O)[C@H](O)[C@@H](NC(=O)c4ccccc4)c4ccccc4)C(C)=C1C3(C)C)[C@]1(OC(C)=O)CO[C@@H]1C[C@@H]2O` (relative stereo) [Paclitaxel, [2aR-[2aα,4β,4aβ,6β,9α(αR*,βS*),11α,12α,12aα,12bα]]-β-(benzoylamino)-α-hydroxybenzenepropanoic acid 6,12b-bis(acetyloxy)-12-(benzoyloxy)-2a,3,4,4a,5,6,9,10,11,12,12a,12b-dodecahydro-4,11-dihydroxy-4a,8,13,13-tetramethyl-5-oxo-7,11-methano-1H-cyclodeca[3,4]benz[1,2-b]oxet-9-yl ester, reference compound], the IC50 at 24 h in data set [1] worked out at 16 nM. In addition, the “Growth inhibition compared among HCT116, HCT116/S5 and granulocyte progenitor cells” value (shortened to “Growth inhibition compared among HCT116”) in data set [2] was “not significantly different”. In data set [3] (setting [5]), the IC50 is 2.5 nM.

Turning to `CCCCCN1C=Nc2c3c(nc4cccc1c24)-c1cc2c(c(=O)n1C3)COC(=O)[C@@]2(CC)OC(=O)CC[C@@H](NC(=O)[C@@H](N)CC1CCCCC1)C(=O)O` [Example 49-2, (9S)-9-ethyl-9-[(L)-cyclohexylalanyl-(D)-γ-glutamyloxy]-1-pentyl-1H,12H-pyrano[3″,4″:6′,7′]indolizino[1′,2′:6,5]pyrido[4,3,2-de]quinazoline-10,13(9H,15H)-dione hydrochloride], the results for the IC50 in data set [4], in data set [2] (setting [6]) and in data set [3] (setting [6]) were 31 nM, 2.6 nM and 18 nM, respectively.

`CC[C@@]1(O)C(=O)OCc2c1cc1n(c2=O)Cc2cc3ccccc3nc2-1` [Camptothecin, 4(S)-ethyl-4-hydroxy-1H-pyrano[3′,4′:6,7]indolizino[1,2-b]quinoline-3,14(4H,12H)-dione, reference compound] registered an IC50 at 24 h in data set [1] of 6.1 nM. Further, the “Growth inhibition compared among HCT116” value in data set [2] is “not significantly different”. For the same molecule, the IC50 in data set [2] (setting [5]) was 5.6 nM; in data set [3] (setting [5]) it was 19 nM.

The molecule `C=C1[C@H](n2ccc(N)nc2=O)O[C@H](CO)[C@H]1O` [DMDC, 2′-deoxy-2′-methylidenecytidine, reference compound] displayed an IC50 at 168 h in data set [1] (168 hr (7 days)) of 0.07 nM. In addition, in data set [2], the “Growth inhibition compared among HCT116” value is on record as “not significantly different”. Besides, the IC50 in data set [2] (Homo sapiens, HCT-116, 96 hr) stood at 0.3 nM; in data set [3] (Homo sapiens, HCT-116, 96 hr), 0.2 nM.

For the origin of these results see patent US20030138864A1, “Method for identifying an enzyme to design anti-cancer compounds” (priority 2001, published 2003).
